Reference: patent US11839659B2, “Proteolysis-targeting chimeric molecules (PROTACs) that induce degradation of indoleamine 2,3-dioxygenase (IDO) protein” (Northwestern University, priority 2020, dated 2023)
“Also recorded” adds a separate entry of the source. Peptide text beside a SMILES is read from it. * marks the point of attachment. Cbz = O=C(OCc1ccccc1)*

Experiments:
Format in all cases: cell-based
IDO1 [1] = target: T1, IDO1 (Homo sapiens, UniProt P14902); experiment: Western blot: effect of competitors and pathway inhibitors on IDO-PROTAC induced IDO1 degradation; details: co-treatment with IDO-PROTAC, U87 cells where stated
T1 construct: IDO1 protein was induced in U87 cells with IFNg (50 ng/ml) for 24 hours followed by treatment with IDO-PROTAC; endogenous in cells; host or cells: U87 parental cells; GBM43 cells (IFNg-induced)
T1 sequence (P14902 whole entry): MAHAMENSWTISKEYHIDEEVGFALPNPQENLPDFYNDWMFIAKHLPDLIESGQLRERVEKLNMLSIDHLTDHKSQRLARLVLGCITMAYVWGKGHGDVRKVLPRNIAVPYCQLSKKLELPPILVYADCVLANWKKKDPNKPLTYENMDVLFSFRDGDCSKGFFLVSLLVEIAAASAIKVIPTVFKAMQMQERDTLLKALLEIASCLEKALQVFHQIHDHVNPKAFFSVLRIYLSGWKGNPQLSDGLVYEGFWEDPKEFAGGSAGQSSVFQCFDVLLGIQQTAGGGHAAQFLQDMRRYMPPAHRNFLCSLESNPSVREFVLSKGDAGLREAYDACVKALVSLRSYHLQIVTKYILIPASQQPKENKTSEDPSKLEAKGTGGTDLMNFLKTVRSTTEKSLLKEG

IDO1 [2] = target: T1, IDO1; experiment: Western blot of IFNg-induced IDO1 protein levels in U87 cells after IDO-PROTAC treatment; details: IFNg (50 ng/ml) 24 hours, then IDO-PROTAC 24 hours
Procedure: FIG. 2. Screening method for PROTAC-induced degradation of IDO1 using INFg-treated U87 parental cells.
(§1) FIG. 20. Discovery of lead IDO-PROTAC to induce IDO1 degradation in cancer cells. A. Schema for screening IDO-PROTAC compounds in U87 cells. […] Percent IFNg-induced IDO1 levels (normalized to untreated samples) were calculated in U87 cells after treating with IDO-PROTAC compounds at 0, 0.1, 1, and 10 uM concentration for 24 hours. C. […] IDO1 was induced in U87 and GBM43 cells with IFNg (50 ng/ml) for 24 hours followed by treatment with IDO-PROTAC for 24 hours before protein samples were prepared for western blotting analysis. D. Percent normalized IDO1 protein levels in U87 and GBM43 cells (from panel C) after treating with lead IDO-PROTAC (NU223612) for 24 hours. E & F. Testing moderate and poor IDO-PROTAC compounds on IDO1 protein levels in U87 cells. […] Structures of IDO-PROTAC (I), mutant IDO-PROTAC (J), and parental compound (K).
FIG. 27. Representative western blots to identify a lead IDO-PROTAC in U87 cells. IDO1 protein was induced in U87 cells with IFNg (50 ng/ml) for 24 hours followed by treatment with IDO-PROTAC at 0, 0.1, 1, and 10 uM for 24 hours before protein samples were prepared for western blotting analysis of IDO1 and GAPDH.

IDO1 [3] = target: T1, IDO1; experiment: Western blot of IFNg-induced IDO1 protein levels in GBM43 cells after IDO-PROTAC treatment; details: IFNg (50 ng/ml) 24 hours, then IDO-PROTAC 24 hours
Procedure: as §1

IDO1 [4] = target: T1, IDO1; experiment: Enzyme-dependent (kynurenine production) and enzyme-independent (phospho-NFkB p65) functions of IDO1 in GBM cells; details: GBM cells (U87, GBM43)
Procedure: FIG. 24. […] A & B. Effect of IDO-PROTAC, mutant IDO-PROTAC, and IDO-inhibitor on kynurenine production in U87 & GBM43 cells respective cells. Cells were treated with IDO-PROTAC, mutant IDO-PROTAC, or IDO-inhibitor in the presence of INFg (50 ng/ml) for 24 hours and cell culture supernatants were collected to measure IFNg-induced kynurenine levels using a modified Erlich method. Cells cultured in the absence of IFNg serves as a control group. C. Western blotting analysis to determine the effect of IDO-PROTAC and IDO-inhibitor on IDO1 protein levels, phospho-NFkB (p65) levels, total-NFkB (p65) levels and GAPDH levels in U87 cells. IDO1 protein was induced with IFNg for 24 hours in U87 cells followed by treatment with IDO-PROTAC and IDO-inhibitor for 24 hours at multiple concentrations. D. Western blotting analysis to determine the effect of IDO-PROTAC, mutant IDO-PROTAC, and IDO-inhibitor on IDO1 protein levels, phospho-NFkB (p65) levels, total-NFkB (p65) levels and GAPDH levels in a breast cancer cell line, MDA MB 231. E. Western blotting analysis to determine the effect of IDO-PROTAC on the levels of IDO1 protein, phospho-NFkB (p65), total-NFkB (p65) and GAPDH in U87 IDO1 overexpressing (flag-tagged) cells. Cells were treated with DMSO or IDO-PROTAC (10 uM) for 24 hours prior to protein extraction. U87 parental cells serves as a control group for basal phosphorylation of NFkB. […]

| IDO1 degradation (western blot) (IDO1 [2]) | IDO1 degradation (western blot) (IDO1 [3]) | Effect on NU223612 (IDO-PROTAC) induced IDO1 degradation (IDO1 [1]; listed as CRBN ligand) | SMILES | Effect on NU223612 (IDO-PROTAC) induced IDO1 degradation (IDO1 [1]) | Effect on enzyme-dependent and enzyme-independent functions of IDO1 (IDO1 [4]) |
| --- | --- | --- | --- | --- | --- |
| – | – | – | CC(C)C[C@@H](C=O)NC(=O)[C@H](CC(C)C)NC(=O)[C@H](CC(C)C)NC(=O)OCc1ccccc1 [MG132] (Cbz-Leu-Leu-Leu-aldehyde) | blocks NU223612 induced IDO1 degradation; also recorded: blocks IDO-PROTAC-induced IDO1 degradation | – |
| – | – | – | NS(=O)(=O)OC[C@@H]1C[C@@H](n2ccc3c(N[C@H]4CCc5ccccc54)ncnc32)C[C@@H]1O [MLN4924] | blocks IDO-PROTAC-induced IDO1 degradation | – |
| induced IDO1 degradation | induced IDO1 degradation | – | C[C@@H](C(=O)Nc1ccc(OC2CCN(C(=O)CCOCCOCCNc3cccc4c3C(=O)N(C3CCC(=O)NC3=O)C4=O)CC2)cc1)[C@H]1CC[C@@H](c2ccnc3ccc(F)cc32)CC1 (stereo partly shown) [NU223612] | – | inhibits both enzyme-dependent and enzyme-independent functions of IDO1 |
| – | – | blocks NU223612 induced IDO1 degradation | Nc1cccc2c1C(=O)N(C1CCC(=O)NC1=O)C2=O (stereo not shown) [Pomalidomide] | blocks IDO-PROTAC-induced IDO1 degradation | – |
